A word on the AC50: it is the concentration at which the activity in the assay is half-maximal.

The source of these data is patent publication US10633350B2, “Diphenyl derivatives and uses thereof” (NOVARTIS AG, priority 2017, dated 2020).

One experiment deals with Akt. As to the kind of experiment: Akt activation assay (Phospho-AKT (Ser473) antibody staining) in U2OS GFP-FoxO3a H212R reporter cells. In kind it is cell-based. The note with it: Homo sapiens, 0.5 h, serum starved overnight, 30 minutes compound treatment, total cellular intensity of Phospho-Akt (Ser473) antibody staining, AC50 = concentration that results in 50% activation or inhibition. The method, then:
Phosphorylation of Akt on S473 and FoxO3a nuclear to cytoplasmic translocation were used as readouts of PI3K/Akt/mTOR pathway activation downstream of growth factor signaling.
Reporter cell line. U2OS GFP-FoxO3a H212R reporter cell line was established by transducing U2OS cells with the retroviral plasmid pLEGFP-C1 containing FoxO3a H212R transgene and selecting for G418 resistant clones.
Reporter assay. U2OS GFP-FoxO3a H212R cells were plated in 384-well plates at 4000 cells per well in 30 microliters of McCoy's 5A medium containing 10% FBS. On day 1 the cells were washed with serum free medium and serum starved overnight. On day 2 the cells were treated with different doses of the compounds for 30 minutes, fixed with 4% Paraformaldehyde for 1 hour and stained with Phospho-AKT (Ser473) antibody (Cell Signaling Technology, catalog #4060) overnight at 4° C. After nuclei staining with Hoechst 33342 (Life Technologies, catalog # H3570) the plates were imaged with InCell 2000 (GE Healthcare Bio-Sciences). FoxO3a inhibition activity is calculated as the ratio of nuclear to cytosolic GFP intensity in percent. Akt activation is measured as the total cellular intensity of Phospho-Akt antibody staining in percent. DMSO control is set as 0% activity.

A further experiment deals with FoxO3a. As to the kind of experiment: FoxO3a inhibition assay (GFP-FoxO3a nuclear to cytoplasmic translocation) in U2OS GFP-FoxO3a H212R reporter cells. Type of experiment: cell-based. The following applies: Homo sapiens, 0.5 h, serum starved overnight, 30 minutes compound treatment, ratio of nuclear to cytosolic GFP intensity, AC50 = concentration that results in 50% activation or inhibition, read-out: FoxO AC50. A digest of the protocol: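 Serum-starved (overnight) cells treated with compounds at various doses for 30 min, then fixed in 4% paraformaldehyde and stained overnight at 4 °C for pAkt S473 with Hoechst nuclear counterstain; high-content imaging. FoxO3a readout: nuclear/cytosolic GFP ratio (%); Akt readout: total cellular pAkt intensity (%); DMSO = 0% activity.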

As to `Cc1cc(C(N)=O)nn1-c1ccc(Cc2ccc(-c3ccc(CN4CCC[C@H]4CO)cc3)cc2)cc1` [Example 16-1, (S)-1-(4-((4′-((2-(hydroxymethyl)pyrrolidin-1-yl)methyl)-[1,1′-biphenyl]-4-yl)methyl)phenyl)-5-methyl-1H-pyrazole-3-carboxamide], the AC50 came to 90 nM in the experiment with Akt and 33 nM in the experiment on FoxO3a.
As to `Cc1cc(C(N)=O)nn1-c1ccc(Cc2ccc(-c3ccc(CNCCO)cc3)cc2)cc1` [Example 16-2], the AC50 was found to be 426 nM with Akt and 138 nM with FoxO3a.
Regarding `Cc1cc(C(N)=O)nn1-c1ccc(Cc2ccc(-c3ccc(CNC4CCC4)cc3)cc2)cc1` [Example 16-3], the half-maximal activity concentration (AC50) with Akt amounted to 804 nM; in the experiment with FoxO3a, 500 nM.
For `Cc1cc(C(N)=O)nn1-c1ccc(Cc2ccc(-c3ccc(CNC4COC4)cc3)cc2)cc1` [Example 16-4], the concentration at half-maximal activity (AC50) was 120 nM in the experiment on Akt and 41 nM with FoxO3a.
For `Cc1cc(C(N)=O)nn1-c1ccc(Cc2ccc(-c3ccc(CN4CCCCC4)cc3)cc2)cc1` [Example 16-6], in that order: 248 nM and 103 nM.
The corresponding values for `Cc1cc(C(N)=O)nn1-c1ccc(Cc2ccc(-c3ccc(CC4CCCN4CO)cc3)cc2)cc1` (stereo not drawn) [Example 16-7] are 24 nM and 9 nM.
On to `Cc1cc(C(N)=O)nn1-c1ccc(Cc2ccc(-c3ccc(CN4CCC4)cc3)cc2)cc1` [Example 16-8], for which the AC50 was determined as 300 nM in the experiment with Akt and 117 nM in the experiment with FoxO3a.
The corresponding values for `Cc1cc(C(N)=O)nn1-c1ccc(Cc2ccc(-c3ccc(S(=O)(=O)CCO)cc3)cc2)cc1` [Example 17, 1-(4-((4′-((2-hydroxyethyl)sulfonyl)-[1,1′-biphenyl]-4-yl)methyl)phenyl)-5-methyl-1H-pyrazole-3-carboxamide] are 101 nM and 29 nM.
The corresponding values for `Cc1cc(C(N)=O)nn1-c1ccc(Cc2ccc(-c3ccc(CN4CC(F)(F)C[C@@H]4CO)cc3)cc2)cc1` [Example 18, (R)-1-(4-((4′-((4,4-difluoro-2-(hydroxymethyl)pyrrolidin-1-yl)methyl)-[1,1′-biphenyl]-4-yl)methyl)phenyl)-5-methyl-1H-pyrazole-3-carboxamide] are 394 nM and 95 nM.
For `Cc1cc(C(N)=O)nn1-c1ccc(Cc2ccc(-c3ccc(C(C)(C)O)cn3)cc2)cc1` [Example 19, 1-(4-(4-(5-(2-hydroxypropan-2-yl)pyridin-2-yl)benzyl)phenyl)-5-methyl-1H-pyrazole-3-carboxamide], the concentration at half-maximal activity (AC50) came to 209 nM in the experiment with Akt and 71 nM with FoxO3a.
With `Cc1nc(-c2ccc(Cc3ccc(-n4nc(C(N)=O)cc4C)cc3)cc2)ccc1C(C)(C)O` [Example 20, 1-(4-(4-(5-(2-hydroxypropan-2-yl)-6-methylpyridin-2-yl)benzyl)phenyl)-5-methyl-1H-pyrazole-3-carboxamide], the AC50 amounted to 208 nM with Akt and 91 nM in the experiment with FoxO3a.
The corresponding values for `Cc1nc(C(N)=O)nn1-c1ccc(Cc2ccc(-c3ccc(C(C)(C)O)cn3)cc2)cc1` [Example 21, 1-(4-(4-(5-(2-hydroxypropan-2-yl)pyridin-2-yl)benzyl)phenyl)-5-methyl-1H-1,2,4-triazole-3-carboxamide] are 723 nM and 155 nM.
`Cc1cc(C(N)=O)nn1-c1ccc(Cc2ccc(-c3ccc(C4(O)COC4)nc3)cc2)cc1` [Example 22, 1-(4-(4-(6-(3-hydroxyoxetan-3-yl)pyridin-3-yl)benzyl)phenyl)-5-methyl-1H-pyrazole-3-carboxamide]: the values for the half-maximal activity concentration (AC50) with Akt and in the experiment with FoxO3a were 187 nM and 42 nM, respectively.
As for `Cc1cc(C(N)=O)nn1-c1ccc(Cc2ccc(-c3ccnc(C(C)(C)O)c3)cc2)cc1` [Example 23, 1-(4-(4-(2-(2-hydroxypropan-2-yl)pyridin-4-yl)benzyl)phenyl)-5-methyl-1H-pyrazole-3-carboxamide], the AC50 in the experiment with Akt came out at 639 nM; with FoxO3a, 121 nM.
The corresponding values for `Cc1cc(C(N)=O)nn1-c1ccc(Cc2ccc(-c3ccc(C(=O)N4CCNCC4)cc3)cc2)cc1` [Example 24, 5-methyl-1-(4-((4′-(piperazine-1-carbonyl)-[1,1′-biphenyl]-4-yl)methyl)phenyl)-1H-pyrazole-3-carboxamide] are 155 nM and 33 nM.
For `Cc1nc(C(N)=O)nn1-c1ccc(Cc2ccc(-c3ccc(C(=O)N4CCNCC4)cc3)cc2)cc1` [Example 25, 5-methyl-1-(4-((4′-(piperazine-1-carbonyl)-[1,1′-biphenyl]-4-yl)methyl)phenyl)-1H-1,2,4-triazole-3-carboxamide], in that order: 726 nM and 135 nM.
For `Cc1cc(C(N)=O)nn1-c1ccc(Cc2ccc(-c3ccc(C(=O)N4CCNCC4)nc3)cc2)cc1` [Example 26, 5-methyl-1-(4-(4-(6-(piperazine-1-carbonyl)pyridin-3-yl)benzyl)phenyl)-1H-pyrazole-3-carboxamide], in that order: 480 nM and 75 nM.
Consider `Cc1cc(C(N)=O)nn1-c1ccc(Cc2ccc(-c3ccc(C(=O)N4CCN[C@@H](CO)C4)cc3)cc2)cc1` [Example 28, (R)-1-(4-((4′-(3-(hydroxymethyl)piperazine-1-carbonyl)-[1,1′-biphenyl]-4-yl)methyl)phenyl)-5-methyl-1H-pyrazole-3-carboxamide], for which the results for the half-maximal activity concentration (AC50) in the experiment with Akt and in the experiment with FoxO3a were 73 nM and 26 nM, respectively.
`Cc1nc(C(N)=O)nn1-c1ccc(Cc2ccc(-c3ccc(C(=O)N4CCN[C@@H](C)C4)cc3)cc2)cc1` [Example 29, (S)-5-methyl-1-(4-((4′-(3-methylpiperazine-1-carbonyl)-[1,1′-biphenyl]-4-yl)methyl)phenyl)-1H-1,2,4-triazole-3-carboxamide]: the figures for the AC50 in the experiment on Akt and with FoxO3a were 486 nM and 138 nM, respectively.
Regarding `Cc1cc(C(N)=O)nn1-c1ccc(Cc2ccc(-c3ccc(C(=O)NC4CNC4)cc3)cc2)cc1` [Example 30, 1-(4-((4′-(azetidin-3-ylcarbamoyl)-[1,1′-biphenyl]-4-yl)methyl)phenyl)-5-methyl-1H-pyrazole-3-carboxamide], the results for the AC50 in the experiment with Akt and in the experiment with FoxO3a were 802 nM and 237 nM, respectively.
The corresponding values for `Cc1cc(C(N)=O)nn1-c1ccc(Cc2ccc(-c3ccc(CN4CCNCC4)nc3)cc2)cc1` [Example 31-1, 5-methyl-1-(4-(4-(6-(piperazin-1-ylmethyl)pyridin-3-yl)benzyl)phenyl)-1H-pyrazole-3-carboxamide] are 354 nM and 77 nM.
For `Cc1cc(C(N)=O)nn1-c1ccc(Cc2ccc(-c3ccnc(CN4CCNCC4)c3)cc2)cc1` [Example 31-2], in that order: 1620 nM and 373 nM.
As to `Cc1cc(C(N)=O)nn1-c1ccc(Cc2ccc(-c3ccc(CN4CCNCC4)cn3)cc2)cc1` [Example 31-3, 5-methyl-1-(4-(4-(5-(piperazin-1-ylmethyl)pyridin-2-yl)benzyl)phenyl)-1H-pyrazole-3-carboxamide], the AC50 in the experiment with Akt stood at 190 nM; in the experiment on FoxO3a it was 158 nM.
On to `Cc1cc(C(N)=O)nn1-c1ccc(Cc2ccc(-c3ccc(CN4CCN(CCO)CC4)nc3)cc2)cc1` [Example 32, 1-(4-(4-(6-((4-(2-hydroxyethyl)piperazin-1-yl)methyl)pyridin-3-yl)benzyl)phenyl)-5-methyl-1H-pyrazole-3-carboxamide], for which the AC50 turned out to be 647 nM in the experiment on Akt and 315 nM in the experiment on FoxO3a.
Take `Cc1nc(C(N)=O)nn1-c1ccc(Cc2ccc(-c3ccc(CN4CCN(C)CC4)nc3)cc2)cc1` [Example 34, 5-methyl-1-(4-(4-(6-((4-methylpiperazin-1-yl)methyl)pyridin-3-yl)benzyl)phenyl)-1H-1,2,4-triazole-3-carboxamide]: the AC50 worked out at 576 nM in the experiment on Akt and 300 nM in the experiment on FoxO3a.
For `Cc1nc(C(N)=O)nn1-c1ccc(Cc2ccc(-c3ccc(CN4CCN(C)[C@@H](C)C4)nc3)cc2)cc1` [Example 37, (S)-1-(4-(4-(6-((3,4-dimethylpiperazin-1-yl)methyl)pyridin-3-yl)benzyl)phenyl)-5-methyl-1H-1,2,4-triazole-3-carboxamide], in that order: 498 nM and 276 nM.
For `Cc1nc(C(N)=O)nn1-c1ccc(Cc2ccc(-c3ccc(CN4CCC(F)(F)C4)cc3)cc2)cc1` [Example 38-2], in that order: 230 nM and 48 nM.
For `Cc1nc(C(N)=O)nn1-c1ccc(Cc2ccc(-c3ccc(CN4CC5(COC5)C4)cc3)cc2)cc1` [Example 38-4], in that order: 207 nM and 62 nM.
On to `Cc1nc(C(N)=O)nn1-c1ccc(Cc2ccc(-c3ccc(CN4CCC[C@@H]4CO)cc3)cc2)cc1` [Example 38-5], for which the AC50 with Akt was determined as 27 nM; in the experiment on FoxO3a, 26 nM.
For `Cc1nc(C(N)=O)nn1-c1ccc(Cc2ccc(-c3ccc(CN4CCC(C)(C)C4)cc3)cc2)cc1` [Example 38-7], in that order: 31 nM and 15 nM.
